Where no end group is shown, it is not given here.
How the values were obtained:
human FPRL2 = target: T1, human FPRL2 (Homo sapiens, UniProt P25089); experiment: Melanophore assay (pigment aggregation, Gi coupling); type: cell-based; set-up: expressed in transfected cells; conditions: FPRL2 double tagged (HA/V5), transient; FIG. 4; read-out: EC50 of promoted pigment aggregation in melanophore (Gi coupling)
T1 sequence (P25089 with tags, fused parts or gaps): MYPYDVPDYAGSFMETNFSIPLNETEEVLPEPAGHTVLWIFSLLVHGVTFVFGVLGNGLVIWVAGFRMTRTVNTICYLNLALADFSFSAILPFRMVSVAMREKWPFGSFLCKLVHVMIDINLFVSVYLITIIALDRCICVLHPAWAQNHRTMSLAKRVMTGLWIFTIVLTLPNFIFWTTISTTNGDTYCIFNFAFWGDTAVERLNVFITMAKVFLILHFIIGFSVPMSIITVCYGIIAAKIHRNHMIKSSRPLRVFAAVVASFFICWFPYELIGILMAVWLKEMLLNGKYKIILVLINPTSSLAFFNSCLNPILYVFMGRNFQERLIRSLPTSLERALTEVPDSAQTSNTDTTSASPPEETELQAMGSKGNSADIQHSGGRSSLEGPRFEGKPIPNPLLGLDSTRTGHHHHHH
Excerpt: Melanophores are skin cells found in lower vertebrates. They contain pigmented organelles termed melanosomes. Melanophores are able to redistribute these melanosomes along a microtubule network upon G-protein coupled receptor (GPCR) activation. The result of this pigment movement is an apparent lightening or darkening of the cells. In melanophores, the decreased levels of intracellular cAMP that result from activation of a Gi-coupled receptor cause melanosomes to migrate to the center of the cell, resulting in a dramatic lightening in color. If cAMP levels are then raised, following activation of a Gs-coupled receptor, the melanosomes are re-dispersed and the cells appear dark again. The increased levels of diacylglycerol that result from activation of Gq-coupled receptors can also induce this re-dispersion. In addition, the technology is also suited to the study of certain receptor tyrosine kinases. […] The response can be easily detected using a conventional absorbance microplate reader or a modest video imaging system. […]
Melanophores can be utilized to identify compounds, including natural ligands, against GPCRs. […] The test cells are then contacted with chemical compounds, and it is determined whether the pigment disposition in the cells changed from the initial state of pigment disposition. […]

FPRL1 = target: T2, FPRL1 (Homo sapiens, UniProt P25090); experiment: [35S]GTPγS binding assay, membranes of transiently transfected CHO cells; type: biochemical; set-up: Full-Length Cloning of Human GPCRs; expressed in transfected cells; host or cells: CHO-K1 cells, transient, pCMV; plasma membranes; conditions: FIG. 3 panel B, read-out: EC50 at FPRL1, promoted [35S]GTPγS binding
T2 sequence (P25090 1-351): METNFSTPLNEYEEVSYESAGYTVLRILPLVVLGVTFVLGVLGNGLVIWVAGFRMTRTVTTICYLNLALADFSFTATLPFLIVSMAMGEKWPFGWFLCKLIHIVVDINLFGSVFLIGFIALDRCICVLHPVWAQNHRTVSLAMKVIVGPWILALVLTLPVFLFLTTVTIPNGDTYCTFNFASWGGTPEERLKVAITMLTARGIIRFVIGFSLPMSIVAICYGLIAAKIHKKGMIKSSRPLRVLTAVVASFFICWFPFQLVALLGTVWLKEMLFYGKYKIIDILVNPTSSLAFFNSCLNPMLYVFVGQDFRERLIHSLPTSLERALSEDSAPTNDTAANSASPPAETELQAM

Row | EC50 (FPRL1) | Compound | EC50 (human FPRL2)
1 |  | CC[C@H](C)[C@H](NC(=O)[C@H](CCC(=O)O)NC(=O)[C@H](CO)NC(=O)[C@@H](NC(=O)[C@H](CC(C)C)NC(=O)[C@H](CC(C)C)NC(=O)[C@H](CC(C)C)NC(=O)[C@H](CC(C)C)NC(=O)[C@H](CS)NC(=O)[C@H](CO)NC(=O)[C@H](Cc1ccccc1)NC(=O)CNC(=O)[C@H](CCCNC(=N)N)NC(=O)[C@@H]1CCCN1C(=O)[C@H](C)NC(=O)[C@@H](N)CCSC)[C@@H](C)O)C(=O)N[C@@H](CC(=O)O)C(=O)N[C@@H](CC(C)C)C(=O)N1CCC[C@H]1C(=O)N[C@H](C(=O)N[C@@H](CCCCN)C(=O)N[C@@H](CCCNC(=N)N)C(=O)N[C@@H](CCCNC(=N)N)C(=O)N[C@@H](C)C(=O)O)C(C)C [Humanin] | ~239 nM
2 | ~1500 nM | MAPRGFSCLLLLTGEIDLPVKRRA [[Gly14]-Humanin] | 

Source: patent US7776558B2, “Human G protein-coupled receptor and modulators thereof for the treatment of cell death-related disorders” (Arena Pharmaceuticals, Inc., priority 2003, dated 2010)
